The values below come from ChEMBL document CHEMBL1148620 (J Med Chem, 2006).

Structures are written as SMILES.

For assay [1], the target named is T1, Melanocortin receptor 4 (Homo sapiens, UniProt P32245, Y287A). In words: Displacement of [125I]NDP-alpha-MSH from mutant MC4R Y287A expressed in HEK293 cells. It is filed as cell-based.
Assay [2] addresses T2, Melanocortin receptor 4 (Homo sapiens, UniProt P32245, Y287F). In words: Displacement of [125I]NDP-alpha-MSH from mutant MC4R Y287F expressed in HEK293 cells. It is filed as cell-based. (Displacement assays read how much labelled ligand stays bound in the presence of the test substance.)
The target of assay [3] is T3, Melanocortin receptor 4 (Homo sapiens, UniProt P32245, F184A). In words: Displacement of [125I]NDP-alpha-MSH from mutant MC4R F184A expressed in HEK293 cells. It is filed as cell-based.
T3 sequence (P32245 whole entry F184A): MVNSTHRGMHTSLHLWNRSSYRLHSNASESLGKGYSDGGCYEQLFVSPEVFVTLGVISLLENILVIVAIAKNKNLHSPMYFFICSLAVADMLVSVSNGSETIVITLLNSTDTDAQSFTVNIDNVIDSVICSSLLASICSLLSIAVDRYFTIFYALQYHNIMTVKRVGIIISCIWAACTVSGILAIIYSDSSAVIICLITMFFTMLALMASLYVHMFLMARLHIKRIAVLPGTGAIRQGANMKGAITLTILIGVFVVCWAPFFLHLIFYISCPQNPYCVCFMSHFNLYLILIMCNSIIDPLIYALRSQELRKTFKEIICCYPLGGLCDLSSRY
The target in assay [4] is T4, Melanocortin receptor 4 (Homo sapiens, UniProt P32245, I125A). Briefly: Displacement of [125I]NDP-alpha-MSH from mutant MC4R I125A expressed in HEK293 cells. Type of assay: cell-based.
T4 sequence (P32245 whole entry I125A): as the sequence (P32245 whole entry F184A) above, with I125A, A184F counted along it
Assay [5] concerns the target T5, Melanocortin receptor 4 (Homo sapiens, UniProt P32245). Briefly: Agonist activity at the human wild type MC4R expressed in HEK293 cells by cAMP accumulation. Type of assay: functional, cell-based.
For assay [6], the target named is T6, Melanocortin receptor 4 (Homo sapiens, UniProt P32245, Y268A). Briefly: Agonist activity at the mutant MC4R Y268A expressed in HEK293 cells by cAMP accumulation. Type of assay: functional, cell-based. On the technique in general: Cyclic AMP is a second messenger, typically raised through Gs and lowered through Gi signalling.
T6 sequence (P32245 whole entry Y268A): as the sequence (P32245 whole entry F184A) above, with A184F, Y268A counted along it
Assay [7] deals with T7, Melanocortin receptor 4 (Homo sapiens, UniProt P32245, Y268F). Briefly: Agonist activity at the mutant MC4R Y268F expressed in HEK293 cells by cAMP accumulation. Type of assay: functional, cell-based.
T7 sequence (P32245 whole entry Y268F): as the sequence (P32245 whole entry F184A) above, with A184F, Y268F counted along it
Assay [8] concerns the target T1, Melanocortin receptor 4. Briefly: Agonist activity at the mutant MC4R Y287A expressed in HEK293 cells by cAMP accumulation. Type of assay: functional, cell-based.
Assay [9] has as its target T2, Melanocortin receptor 4. In words: Agonist activity at the mutant MC4R Y287F expressed in HEK293 cells by cAMP accumulation. Type of assay: functional, cell-based.
Assay [10] deals with T3, Melanocortin receptor 4. Briefly: Agonist activity at the mutant MC4R F184A expressed in HEK293 cells by cAMP accumulation. It is filed as functional, cell-based.
The target in assay [11] is T4, Melanocortin receptor 4. Briefly: Agonist activity at the mutant MC4R I125A expressed in HEK293 cells by cAMP accumulation. Type of assay: functional, cell-based.
Assay [12] concerns the target T8, Melanocortin receptor 4 (Homo sapiens, UniProt P32245, I291A). Briefly: Agonist activity at the mutant MC4R I291A expressed in HEK293 cells by cAMP accumulation. It is filed as functional, cell-based.
The target in assay [13] is T7, Melanocortin receptor 4. In words: Displacement of [125I]NDP-alpha-MSH from mutant MC4R Y268F expressed in HEK293 cells. It is filed as cell-based.
Assay [14] addresses T6, Melanocortin receptor 4. Briefly: Displacement of [125I]NDP-alpha-MSH from mutant MC4R Y268A expressed in HEK293 cells. Type of assay: cell-based.
For assay [15], the target named is T9, Melanocortin receptor 4 (Homo sapiens, UniProt P32245, I129A).
T9 sequence (P32245 whole entry I129A): as the sequence (P32245 whole entry F184A) above, with I129A, A184F counted along it
In assay [16] the target is T5, Melanocortin receptor 4. In words: biochemical.
Assay [17] concerns the target T9, Melanocortin receptor 4. In words: biochemical.
Assay [18] deals with T5, Melanocortin receptor 4. Briefly: Antagonist activity at the human wild type MC4R expressed in HEK293 cells by cAMP accumulation. Type of assay: functional, cell-based.
Assay [19] deals with T6, Melanocortin receptor 4. Briefly: Antagonist activity at the mutant MC4R Y268A expressed in HEK293 cells by cAMP accumulation. It is filed as functional, cell-based.
Assay [20] has as its target T7, Melanocortin receptor 4. Briefly: Antagonist activity at the mutant MC4R Y268F expressed in HEK293 cells by cAMP accumulation. Type of assay: functional, cell-based.
Assay [21] concerns the target T1, Melanocortin receptor 4. Briefly: Antagonist activity at the mutant MC4R Y287A expressed in HEK293 cells by cAMP accumulation. It is filed as functional, cell-based.
The target of assay [22] is T2, Melanocortin receptor 4. Briefly: Antagonist activity at the mutant MC4R Y287F expressed in HEK293 cells by cAMP accumulation. It is filed as functional, cell-based.
The target of assay [23] is T3, Melanocortin receptor 4. Briefly: Antagonist activity at the mutant MC4R F184A expressed in HEK293 cells by cAMP accumulation. It is filed as functional, cell-based.
For assay [24], the target named is T4, Melanocortin receptor 4. Briefly: Antagonist activity at the mutant MC4R I125A expressed in HEK293 cells by cAMP accumulation. Type of assay: functional, cell-based.
Assay [25] deals with T8, Melanocortin receptor 4. In words: Antagonist activity at the mutant MC4R I291A expressed in HEK293 cells by cAMP accumulation. Type of assay: functional, cell-based.

T8 sequence (P32245 whole entry I291A): as the sequence (P32245 whole entry F184A) above, with A184F, I291A counted along it
T2 sequence (P32245 whole entry Y287F): as the sequence (P32245 whole entry F184A) above, with A184F, Y287F counted along it
T1 sequence (P32245 whole entry Y287A): as the sequence (P32245 whole entry F184A) above, with A184F, Y287A counted along it
T5 sequence (P32245 whole entry): as the sequence (P32245 whole entry F184A) above, with A184F counted along it

`CC[C@H](C)[C@@H]1NC(=O)[C@H]([C@@H](C)O)NC(=O)[C@H](Cc2c[nH]c3ccccc23)NC(=O)[C@H](CCCN=C(N)N)NC(=O)[C@@H](Cc2ccccc2)NC(=O)[C@H](Cc2cnc[nH]2)NC(=O)[C@H]([C@@H](C)O)NC(=O)[C@H](Cc2ccc(O)cc2)NC(=O)[C@H](CO)NC(=O)[C@@H]2CCCN2C1=O`: the Ki is 1490 nM in assay [1]; 90 nM in [2]; 29 nM in assay [3]; 111 nM in assay [4]; 83 nM in assay [13]; 1370 nM in assay [14]. For the same compound, the Ki in assay [16] was 59 nM; in assay [17], 710 nM. Also, the EC50 in assay [5] came to 11 nM; in assay [6], 270 nM; in [7] it was 12 nM; in assay [8], 328 nM; in [9], 9.5 nM; in [10], 3.2 nM. Also, the EC50 was determined as 202 nM in [11], 250 nM in assay [12] and 250 nM in [15].
For the compound `CC[C@H](C)[C@@H]1NC(=O)[C@H]([C@@H](C)O)NC(=O)[C@H](Cc2c[nH]c3ccccc23)NC(=O)[C@H](CCCN=C(N)N)NC(=O)[C@@H](Cc2cccc3ccccc23)NC(=O)[C@H](Cc2c[nH]cn2)NC(=O)[C@H]([C@@H](C)O)NC(=O)[C@H](Cc2ccc(O)cc2)NC(=O)[C@H]([C@@H](C)O)NC(=O)[C@@H]2CCCN2C1=O`, the Ki in assay [1] stood at 18 nM; in assay [2], 1.7 nM; in assay [3] it was 0.71 nM; in assay [4] it was 1.3 nM; in assay [13] it was 0.92 nM; in [14], 40 nM. The figures for the inhibitory constant (Ki) in [16] and in [17] were 1.5 nM and 14 nM, respectively. In addition, the half-maximal inhibitory concentration (IC50) in assay [18] amounted to 16 nM; in assay [19], 248 nM; in assay [20], 17 nM; in assay [21], 121 nM; in [22], 8.8 nM; in assay [23] it was 11 nM. Also, the IC50 turned out to be 5.8 nM in assay [24] and 22 nM in assay [25].
Take `CN(C)[C@H]1C[C@@H](C(=O)N2CCC(Cn3cncn3)(C3CCCCC3)CC2)[C@H](c2ccc(Cl)cc2)C1`: the inhibitory constant (Ki) is 2120 nM in assay [1]; 890 nM in [2]; 114 nM in assay [3]; 1250 nM in assay [4]; 275 nM in assay [13]; 1020 nM in [14]. Moreover, the Ki in assay [16] is 305 nM; in assay [17] it was 3100 nM. The EC50 in [5] was 9.5 nM; in assay [6] it was 33 nM; in assay [7] it was 6.6 nM; in assay [8], 418 nM; in assay [9], 10 nM; in assay [10] it was 1.02 nM. Moreover, the EC50 in assay [11] is 53 nM; in [12], more than 1000 nM; in [15], 1520 nM.

In general, Ki refers to a measure of affinity in units of concentration, obtained from inhibition or displacement. Higher therefore signals weaker binding. In general, EC50 refers to the concentration giving half of the maximal effect. Low readings indicate higher potency in that assay, high ones lower potency in that assay. For orientation: IC50 means the concentration that inhibits the measured activity by half. A high value points to lower potency.
